Laboratory results from patent publication US9492365B2, “Use of caftaric acid and derivatives in food supplement for regulating skin pigmentation” (Nestec S.A., priority 2010, dated 2016).

What was measured:
tyrosinase = experiment: Production of tyrosinase by B16 murine melanocyte cell line (immunolabeling); format: cell-based; settings: B16 melanocytes, 48 hours, immunolabeling (FIG. 2)
Procedure: In order to evaluate the potential beneficial effect of ingredients towards skin de- or pro-pigmentation we used 2D culture of murine melanocytes (B16) and we performed 2 tests: 1—assessment of melanin production and 2—assessment of tyrosinase production. 1. The cell culture conditions. • B16 cells were cultured in DMEM 1 g/L glucose without phenol red supplemented with 10% foetal calf serum, in a humidified chamber at 37° C. and containing 5% CO2. 3. The production of tyrosinase by B16 murine melanocyte cell line. • Cells were incubated with the selected ingredients or the test references (Kojic acid at 400 μg/mL) for 48 hours. The production of tyrosinase was evaluated by immunolabeling.

HPEK = experiment: Highest non cytotoxic concentration on HPEK; format: cell-based, human; settings: HPEK cells
HDF = experiment: Highest non cytotoxic concentration on HDF; format: cell-based; settings: HDF cells
filaggrin = experiment: Synthesis of filaggrin by human epidermal keratinocytes (immunolabeling); format: cell-based; settings: human primary epidermal keratinocytes, 144 hours
Procedure: The potential beneficial effect of the Extracts of Example 1 towards skin barrier function and skin hydration was evaluated by using 2D culture of human primary epidermal keratinocytes and we assessed their synthesis of filaggrin. Human epidermal keratinocytes were cultured in control keratinocytes-SFM medium, in a humidified chamber at 37° C. and containing 5% CO2. Cells were incubated with the selected ingredients or the test references (CaCl2 at 1.5 mM) for 144 hours. The production of filaggrin by was evaluated by immunolabeling.

B16 murine melanocytes = experiment: Production of melanin by B16 murine melanocyte cell line; format: cell-based; settings: B16 melanocytes treated for 72 hours, presence or absence of NDP-MSH; relative to control (FIG. 1); Kojic acid at 400 μg/mL
Procedure: In order to evaluate the potential beneficial effect of ingredients towards skin de- or pro-pigmentation we used 2D culture of murine melanocytes (B16) and we performed 2 tests: 1—assessment of melanin production and 2—assessment of tyrosinase production. 1. The cell culture conditions. • B16 cells were cultured in DMEM 1 g/L glucose without phenol red supplemented with 10% foetal calf serum, in a humidified chamber at 37° C. and containing 5% CO2. 2. The production of melanin by B16 murine melanocyte cell line. • Cells were incubated with the selected ingredients or the test references (Kojic acid at 400 μg/mL) for 72 hours, in the presence or absence of NDP-MSH an analog of MSH. The total quantity of melanin (extracellular and intracellular) was evaluated by measurement of the optical density at 405 nm of each sample against melanin standards in presence or in absence of NDP-MSH.

## O=C(/C=C/c1ccc(O)c(O)c1)O[C@@H](C(=O)O)[C@@H](O)C(=O)O [Caftaric acid]
tyrosinase
  Production of tyrosinase: decreased by these ingredients but to a limited extent
HPEK
  Highest non cytotoxic conc. on HPEK: 1 mM
HDF
  Highest non cytotoxic conc. on HDF: 1 mM
filaggrin
  Filaggrin production: increased filaggrin production
B16 murine melanocytes
  Melanin production: decreased the production of melanin in vitro, more efficiently than the tested chicory extract MS-70

## O=c1cc(CO)occ1O [Kojic acid, reference compound]
B16 murine melanocytes
  Melanin production: decrease in melanin production
